In US11696914B1 (priority 2019, dated 2023):
Where “and” joins values, the source holds several entries; their conditions need not be identical. Equal entries are not always repeated. Where two headings read alike, the source gives them in different places.

Legend:
HeLa cells [1] = tested on: HeLa cells
[2] = microsomes; for t1/2: monkey
[3] = mouse, microsomes, 1 h, pH 7.4
[4] = human, microsomes
[5] = mouse, microsomes
[6] = guinea pig, microsomes
[7] = guinea pig, pH 7.4
[8] = human, microsomes, 1 h
in vitro [9] = details: mouse, microsomes
in vitro [10] = details: microsomes
in vitro [11] = details: guinea pig, microsomes
in vitro [12] = details: human, microsomes
Sudan virus = details: guinea pig, in vivo; cited from earlier work
SARS-CoV-2 = assay: microbe, parasite or virus in culture; format: cell-based
[13] = tested on: Marburg virus/H.sapiens-tc/KEN/1980/Mt. Elgon-Musoke (MARV/Mus); assay: organism not typed; format: cell-based; details: HeLa
in vitro [14] = details: dog
EBOV Zaire = assay: microbe, parasite or virus in culture; format: cell-based, Ebola virus; details: Zaire ebolavirus, HeLa
Tacaribe virus = assay: microbe, parasite or virus in culture; format: cell-based; details: Mammarenavirus tacaribeense, Vero 76
[15] = tested on: Ebola virus/H.sapiens-tc/COD/1976/Yambuku-Mayinga (EBOV/May); assay: microbe, parasite or virus in culture; format: cell-based; details: Zaire ebolavirus, HeLa
SARS-CoV-2 Spike RBD = SARS-CoV-2 Spike RBD (Severe acute respiratory syndrome coronavirus 2, UniProt P0DTC2); format: binding
[16] = Hartley, guinea pig, in vivo, po, 30 mg/kg
[17] = tested on: Ebola virus/H.sapiens-tc/COD/1995/Kikwit-9510621 (EBOV/Kik); assay: microbe, parasite or virus in culture; format: cell-based; details: Zaire ebolavirus, HeLa
[18] = tested on: Ebola virus/H.sapiens-tc/GIN/2014/Makona-005 (EBOV/Mak); assay: microbe, parasite or virus in culture; format: cell-based; details: Zaire ebolavirus, HeLa
Influenza A virus H1N1 = assay: microbe, parasite or virus in culture; format: cell-based; details: H1N1, MDCK
MERS coronavirus = assay: microbe, parasite or virus in culture; format: cell-based; details: Middle East respiratory syndrome-related coronavirus, Vero 76
[19] = tested on: Venezuelian equine encephalitis virus; assay: microbe, parasite or virus in culture; format: cell-based; details: Venezuelan equine encephalitis virus, Vero 76
Vero 76 = details: African green monkey
[20] = tested on: Vesicular Stomatitis Virus (VSV) pseudotyped with EBOV glycoprotein; assay: microbe, parasite or virus in culture; format: cell-based, Ebola virus; details: HeLa, read-out: IC50, inhibition of EBOV-VSV pseudovirus entry
in vivo [21] = details: both, Hartley, guinea pig, po
Chikungunya virus = assay: microbe, parasite or virus in culture; format: cell-based; details: Vero 76
Poliovirus 3 = assay: microbe, parasite or virus in culture; format: cell-based; details: Enterovirus C, Vero 76
[22] = tested on: Marburg virus/H.sapiens-tc/AGO/2005/Ang-1379v (MARV/Ang); assay: organism not typed; format: cell-based; details: HeLa
HeLa cells [23] = details: human
Hartley guinea pigs = details: guinea pig, in vivo
[24] = tested on: Marburg virus (MARV), Musoke strain; assay: organism not typed; format: cell-based; details: HeLa; n=6; read-out: IC50 ± SEM versus MARV Musoke strain
Yellow Fever virus = assay: microbe, parasite or virus in culture; format: cell-based; details: Vero 76
in vivo [25] = details: Hartley, guinea pig, po; for AUC(0-t): AUClast Mean; for Cmax: Cmax Mean; for half-life: T1/2
[26] = tested on: murine hepatitis virus (MHV); assay: microbe, parasite or virus in culture; format: cell-based; details: Murine coronavirus, read-out: IC50 versus murine hepatitis virus (MHV)
in vitro [27] = details: human
Ebola virus = assay: microbe, parasite or virus in culture; format: cell-based; details: Zaire ebolavirus, Vero 76
EBOV = details: human, in vivo; cited from earlier work
[28] = Severe acute respiratory syndrome coronavirus 2, A549-ACE2, read-out: IC50 against SARS-CoV-2

C[C@H]1[C@H](OC(=O)CCC(=O)O)O[C@@H]2O[C@@]3(C)CC[C@H]4[C@H](C)CC[C@@H]1[C@@]24OO3 [Artesunate]
effect on toxicity of pyronaridine in the checkboard assay (HeLa cells [1]): ameliorates the toxicity of pyronaridine

CCN(CC)CCCC(C)Nc1ccnc2cc(Cl)ccc12 (stereo not drawn) [Chloroquine]
Clint [2]: 13.0
Dextromethorphan: compound, t1/2 normalized to dextromethorphan control [2]: 19.1
t1/2 [2]: 106.8 min
Relative Peak Area/Abundance MLM [3]: 42.5%
Clint [4]: 6.9
Dextromethorphan: compound, t1/2 normalized to dextromethorphan control [4]: 10.3
t1/2 [4]: 201.4 min
Clint [5]: 29.3
Dextromethorphan: compound, t1/2 normalized to dextromethorphan control [5]: 2.7
t1/2 [5]: 47.3 min
Clint [6]: 10.5
Dextromethorphan: compound, t1/2 normalized to dextromethorphan control [6]: 42.1
t1/2 [6]: 132.6 min
Relative Peak Area/Abundance GPLM [7]: 43.3%
Relative Peak Area/Abundance HLM ([8]; pH 7.4): 56.7%

COc1ccc2c(c1)[C@]13CCCC[C@@H]1[C@H](C2)N(C)CC3 [Dextromethorphan]
half-life (in vitro [9]; Dextromethorphan t1/2): 16.2 min
half-life (in vitro [9]; t1/2 of CYP probe controls): 13.2 min
half-life (in vitro [10]; monkey): 6.69 min
half-life (in vitro [10]; non-human primate): 5.7 min
half-life (in vitro [11]; Dextromethorphan t1/2): 3.2 min
half-life (in vitro [11]; t1/2 of CYP probe controls): 2.9 min
half-life (in vitro [12]; Dextromethorphan t1/2): 19.7 min
half-life (in vitro [12]; t1/2 of CYP probe controls): 14.8 min

O=C(O)Cc1ccccc1Nc1c(Cl)cccc1Cl [Diclofenac]
half-life (in vitro [10]; monkey): 43.1 min
t1/2 of CYP probe controls [5]: 39.6 min

NC(=O)c1nc(F)c[nH]c1=O [Favipiravir]
survival rates in Sudan virus-infected guinea pigs (Sudan virus): 83-100%

COc1ccc2nc3cc(Cl)ccc3c(N)c2n1 [M11]
Relative Peak Area/Abundance HLM [8]: 0.2%

Cc1ncc2n1-c1ccc(Cl)cc1C(c1ccccc1F)=NC2 [Midazolam]
half-life (in vitro [9]; t1/2 of CYP probe controls): 1.68 min
half-life (in vitro [10]; monkey): 4.3 min
half-life (in vitro [11]; t1/2 of CYP probe controls): 3.75 min
half-life (in vitro [12]; t1/2 of CYP probe controls): 2.35 min

COc1ccc2[nH]c([S+]([O-])Cc3ncc(C)c(OC)c3C)nc2c1 (stereo not drawn) [Omeprazole]
half-life (in vitro [10]; monkey): 25.5 min
half-life (in vitro [11]; t1/2 of CYP probe controls): 34 min
half-life (in vitro [12]; t1/2 of CYP probe controls): 23.5 min

CCC(CC)COC(=O)[C@H](C)N[P@](=O)(OC[C@H]1O[C@@](C#N)(c2ccc3c(N)ncnn23)[C@H](O)[C@@H]1O)Oc1ccccc1 [Remdesivir]
IC50 (SARS-CoV-2; [28]): ~147 nM

CCN(CC)CCOc1ccc2c(c1)C(=O)c1cc(OCCN(CC)CC)ccc1-2 [Tilorone]
IC50 [13]: 2050 ± 280 nM
CC50 (in vitro [14]): 19 µM
EC50 (EBOV Zaire): 230 nM
EC50 (Tacaribe virus): 29 µM
IC50 (SARS-CoV-2; [28]): < 200 nM
IC50 (SARS-CoV-2; read-out: IC50 against SARS-CoV-2): ~180 nM and 180 nM
IC50 [15]: 1210 ± 1070 nM
Kd (SARS-CoV-2 Spike RBD; pH5.2): 631 nM
Kd (SARS-CoV-2 Spike RBD; pH 7.4): 339 nM
AUClast Mean ([16]; female): 1340 ng·h/mL
AUClast Mean ([16]; male): 1230 ng·h/mL
T1/2 ([16]; male): 13.3 h
IC50 [17]: 1480 ± 470 nM
IC50 [18]: 1140 ± 380 nM
EC50 (Influenza A virus H1N1): > 19 µM
Clint [2]: 14.7
Dextromethorphan: compound, t1/2 normalized to dextromethorphan control [2]: 16.9
t1/2 [2]: 94.3 min
EC50 (MERS coronavirus): 3.7 µM
EC50 [19]: 18 µM
CC50 (Vero 76): 32 µM
Relative Peak Area/Abundance MLM [3]: 62.9%
IC50 [20]: 5 µM
MTD (in vivo [21]): 30 mg/kg
Clint [4]: 10.9
Dextromethorphan: compound, t1/2 normalized to dextromethorphan control [4]: 6.5
t1/2 [4]: 127.1 min
Clint [5]: 13.5
Dextromethorphan: compound, t1/2 normalized to dextromethorphan control [5]: 6.3
t1/2 [5]: 102.7 min
EC50 (Chikungunya virus): 4.2 µM
Clint [6]: 113.7
Dextromethorphan: compound, t1/2 normalized to dextromethorphan control [6]: 3.9
t1/2 [6]: 12.2 min
EC50 (Poliovirus 3): > 25 µM
IC50 [22]: 4.51 ± 1.93 µM
CC50 (HeLa cells [23]): 18 ± 3.04 µM
Relative Peak Area/Abundance GPLM [7]: 35.5%
tolerability (Hartley guinea pigs): relatively well tolerated
mortality and morbidity (Hartley guinea pigs; po, 100 mg/kg): significant mortality and morbidity
Relative Peak Area/Abundance HLM ([8]; pH 7.4): 54.9%
IC50 [24]: 1940 ± 304 nM
EC50 (Yellow Fever virus): > 12 µM
AUC(0-t) (in vivo [25]; female, 30 mg/kg): 1140 ng·h/mL
Cmax (in vivo [25]; female, 30 mg/kg): 246 ng/mL
half-life (in vivo [25]; female, 30 mg/kg): 858 min
Tmax (in vivo [25]; female, 30 mg/kg): 0.5 h
AUC(0-t) (in vivo [25]; female, 100 mg/kg): 3330 ng·h/mL
Cmax (in vivo [25]; female, 100 mg/kg): 384 ng/mL
half-life (in vivo [25]; female, 100 mg/kg): 1040 min
Tmax (in vivo [25]; female, 100 mg/kg): 1 h
AUC(0-t) (in vivo [25]; female, 200 mg/kg): 4680 ng·h/mL
Cmax (in vivo [25]; female, 200 mg/kg): 448 ng/mL
Tmax (in vivo [25]; female, 200 mg/kg): 1 h
AUC(0-t) (in vivo [25]; male, 30 mg/kg): 1020 ng·h/mL
Cmax (in vivo [25]; male, 30 mg/kg): 148 ng/mL
half-life (in vivo [25]; male, 30 mg/kg): 936 min
Tmax (in vivo [25]; male, 30 mg/kg): 1 h
AUC(0-t) (in vivo [25]; male, 100 mg/kg): 2690 ng·h/mL
Cmax (in vivo [25]; male, 100 mg/kg): 225 ng/mL
Tmax (in vivo [25]; male, 100 mg/kg): 1 h
AUC(0-t) (in vivo [25]; male, 200 mg/kg): 5750 ng·h/mL
Cmax (in vivo [25]; male, 200 mg/kg): 355 ng/mL
half-life (in vivo [25]; male, 200 mg/kg): 1740 min
Tmax (in vivo [25]; male, 200 mg/kg): 1 h
IC50 [26]: ~20 µM
CC50 (in vitro [27]): 6.5 µM
EC50 (Ebola virus): > 11 µM

B1: mAb114 (antibody, chains of the INN, looked up, V domains shown)
VH: EVQLVESGGGLIQPGGSLRLSCAASGFALRMYDMHWVRQTIDKRLEWVSAVGPSGDTTYADSVKGRFAVSRENAKNSLSLQMNSLTAGDTAIYYCVRSDRGVAGLFDSWGQGILVTVSS
VL: DIQMTQSPSSLSASVGDRITITCRASQAFDNYVAWYQQRPGKVPKLLISAASALHAGVPSRFSGSGSGTHFTLTISSLQPEDVATYYCQNYNSAPLTFGGGTKVEIK
overall survival rate in EBOV patients (EBOV): 66%
